Laboratory results taken from US20090203780A1, “Use of a Polyunsaturated Fatty Acid Compound” (priority 2006, published 2009).

System: enteroendocrine STC1-1 cell line
Assay: not given
Conditions: negative control fatty acid; cited from earlier work

Molecule	Induction of CCK (already known)
CCCCCCCCCC(=O)O [Capric acid]	does not induce CCK

System: enteroendocrine STC1-1 cell line
Assay: CCK release from intestinal cells (in-vitro trial, CCK RIA)
Type: cell-based
Parameters: CCK release (Effects of fatty acids on CCK release): unit not given here
Conditions: 100 μM, 1 hour
Method: The relative CCK release by a number of different compounds was determined in an in-vitro trial to measure the effect of various free fatty acids on CCK release from intestinal cells.
The enteroendocrine STC1-1 cell line was cultivated at 37° C. in a 5% CO2, 95% air atmosphere in standard culture medium (DMEM). Cells were routinely passaged upon reaching 70-80% confluency by washing the cell layer with PBS and incubating with a solution of trypsin-EDTA. Plating density of 2×10^6 cells by 75 cm^2 was used for routine subculture.
STC1 cells were seeded into 6-well culture plates and incubated with control culture medium, with or without the tested agents, for 1 hour. All agents were tested at a 100 μM concentration in the free fatty acid form. Since fatty acids were diluted into ethanol the effect of ethanol was tested and indicated the baseline CCK levels. […] Effects of bombesin was used as positive control. At the end of incubation the supernatant was collected, centrifuged and immediately frozen at −20° C. for RIA.
Cell viability was checked by microscopic analysis using an MTT cytotoxicity assay, and in addition LDH release was measured.
CCK release was measured using a standard CCK RIA and effects of fatty acids were measured in 6-fold.

Molecule	CCK release compared with other fatty acids (in words)
CCCCCC=CCC=CCC=CCC=CCCCC(=O)O [Arachidonic acid (20:4), 5,8,11,14-eicosatetraenoic acid]	higher level of CCK release than other related fatty acids

Same assay, conditions: 100 microM, free fatty acid form, 1 hour incubation, RIA of supernatant, measured in 6-fold, ethanol baseline 53

Molecule	CCK release (Effects of fatty acids on CCK release)
CCCCCC/C=C/C=C/CCCCCCCC(=O)O (single isomer, unassigned) [CLA 9, 11 isomer]	135
CCCCCC=CC=CCCCCCCCCC(=O)O (single isomer, unassigned) [CLA 10, 12 isomer]	133
CCCC/C=C/C=C/C=C\CCCCCCCC(=O)O [Alpha-eleostearic acid (18:3), Alpha-eleostearic acid]	212
CC/C=C\C/C=C\C/C=C\CCCCCCCC(=O)O [Alpha-linolenic acid (18:3), Alpha-linolenic acid]	177
CCCCCC=CCC=CCC=CCC=CCCCC(=O)O [Arachidonic acid (20:4), 5,8,11,14-eicosatetraenoic acid]	392
CCCCCCCCCC(=O)O [Capric acid]	43
CC/C=C\C/C=C\C/C=C\C/C=C\C/C=C\CCCC(=O)O [Eicosapentanoic acid (20:5), Eicosapentanoic acid]	164
CCCCC=CC=CC=CCCCCCCCC(=O)O [Gamma-eleostearic acid (18:3), Gamma-eleostearic acid]	126
CCCCC/C=C\C/C=C\C/C=C\CCCCC(=O)O [Gamma-linolenic acid (18:3), Gamma-linolenic acid]	140
CC/C=C\C/C=C\C/C=C\CCCC/C=C\CCCC(=O)O [Juniperonic acid (20:4), Juniperonic acid]	97
CCCCCCCCCCCC(=O)O [Lauric acid]	118
CCCCC/C=C\C/C=C\CCCCCCCC(=O)O [Linoleic acid (18:2), Linoleic acid]	68
CCCCCCCC/C=C\CCCCCCCC(=O)O [Oleic acid (18:1), Oleic acid]	90
CCCC\C=C/C=C/C=C\CCCCCCCC(=O)O [Punicic acid (18:3), Punicic acid]	320
CCCCC/C=C\C/C=C\CCCC/C=C\CCCC(=O)O [Sciadonic acid (20:3), Sciadonic acid]	79
CC/C=C\C/C=C\C/C=C\C/C=C\CCCCC(=O)O [Stearidonic acid (18:4), Stearidonic acid]	69
CCCCCCCC/C=C\CC/C=C\CCCC(=O)O [Taxoleic acid (18:2)]	82
conjugated linoleic acid [CLA]	87
